Measured values published in US20040266623A1, “SYNERGISTIC QUINCLORAC HERBICIDAL COMPOSITIONS” (priority 2003, published 2004).

Key:
Assay in all cases: Greenhouse pot test, postemergent spray, visual control rating converted to percent control
Type in all cases: in vivo
crabgrass = tested on: crabgrass
Outline: (§1)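 Greenhouse-grown pots were sprayed postemergence at 43.46 gallons spray solution/acre. Control was scored visually on a 1–9 scale (1 = no control, 9 = plant death) at 24, 48 and 72 HAT and at 7, 14 and 21 DAT, then converted to percent control. Expected combination responses were calculated by Colby's formulas.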

plantain = tested on: plantain
Outline: as §1

white clover = tested on: white clover
Outline: as §1

O=C(O)c1c(Cl)ccc2cc(Cl)cnc12 [Quinclorac, 3,7-dichloro-8-quinolinecarboxylic acid]
77.8%: % Control Crabgrass (crabgrass; Test 1, 14 DAT, 0.18 lbs/A) | % Control Crabgrass (crabgrass; Test 2, 7 DAT, 0.375 lbs/A) | % Control Crabgrass (crabgrass; Test 2, 7 DAT, 0.75 lbs/A) | % Control Crabgrass (crabgrass; Test 2, 14 DAT, 0.375 lbs/A) | % Control Clover (white clover; Test 2, 7 DAT, 0.375 lbs/A) | % Control Clover (white clover; Test 2, 7 DAT, 0.75 lbs/A)
2: Control (1-9) Crabgrass (crabgrass; Test 1, 24 HAT, 0.18 lbs/A) | Control (1-9) Crabgrass (crabgrass; Test 1, 24 HAT, 0.375 lbs/A) | Control (1-9) Crabgrass (crabgrass; Test 1, 24 HAT, 0.75 lbs/A) | Control (1-9) Crabgrass (crabgrass; Test 2, 24 HAT, 0.375 lbs/A) | Control (1-9) Crabgrass (crabgrass; Test 2, 24 HAT, 0.75 lbs/A) | Control (1-9) Crabgrass (crabgrass; Test 4, 7 DAT, 0.375 lbs/A) | Control (1-9) Crabgrass (crabgrass; Test 4, 7 DAT, 0.75 lbs/A) | Control (1-9) Crabgrass (crabgrass; Test 4, 14 DAT, 0.18 lbs/A) | Control (1-9) Plantain (plantain; Test 4, 7 DAT, 0.375 lbs/A) | Control (1-9) Plantain (plantain; Test 4, 14 DAT, 0.375 lbs/A) | Control (1-9) Clover (white clover; Test 1, 48 HAT, 0.18 lbs/A) | Control (1-9) Clover (white clover; Test 2, 24 HAT, 0.18 lbs/A) | Control (1-9) Clover (white clover; Test 2, 24 HAT, 0.375 lbs/A) | Control (1-9) Clover (white clover; Test 2, 24 HAT, 0.75 lbs/A)
88.9%: % Control Crabgrass (crabgrass; Test 2, 14 DAT, 0.75 lbs/A) | % Control Clover (white clover; Test 1, 14 DAT, 0.75 lbs/A)
1: Control (1-9) Crabgrass (crabgrass; Test 4, 7 DAT, 0.18 lbs/A) | Control (1-9) Clover (white clover; Test 1, 24 HAT, 0.18 lbs/A) | Control (1-9) Clover (white clover; Test 1, 24 HAT, 0.375 lbs/A) | Control (1-9) Clover (white clover; Test 1, 24 HAT, 0.75 lbs/A)
11.1%: % Control Crabgrass (crabgrass; Test 4, 7 DAT, 0.18 lbs/A) | % Control Clover (white clover; Test 1, 24 HAT, 0.18 lbs/A) | % Control Clover (white clover; Test 1, 24 HAT, 0.375 lbs/A) | % Control Clover (white clover; Test 1, 24 HAT, 0.75 lbs/A)
33.3%: % Control Crabgrass (crabgrass; Test 1, 48 HAT, 0.18 lbs/A) | % Control Crabgrass (crabgrass; Test 2, 7 DAT, 0.18 lbs/A) | % Control Crabgrass (crabgrass; Test 2, 24 HAT, 0.18 lbs/A) | % Control Crabgrass (crabgrass; Test 2, 72 HAT, 0.375 lbs/A) | % Control Crabgrass (crabgrass; Test 4, 14 DAT, 0.375 lbs/A) | % Control Plantain (plantain; Test 4, 7 DAT, 0.18 lbs/A) | % Control Plantain (plantain; Test 4, 7 DAT, 0.75 lbs/A) | % Control Plantain (plantain; Test 4, 14 DAT, 0.18 lbs/A) | % Control Plantain (plantain; Test 4, 14 DAT, 0.75 lbs/A) | % Control Clover (white clover; Test 1, 7 DAT, 0.18 lbs/A) | % Control Clover (white clover; Test 1, 7 DAT, 0.375 lbs/A) | % Control Clover (white clover; Test 1, 7 DAT, 0.75 lbs/A) | % Control Clover (white clover; Test 1, 48 HAT, 0.375 lbs/A) | % Control Clover (white clover; Test 1, 48 HAT, 0.75 lbs/A) | % Control Clover (white clover; Test 2, 72 HAT, 0.18 lbs/A) | % Control Clover (white clover; Test 2, 72 HAT, 0.375 lbs/A) | % Control Clover (white clover; Test 2, 72 HAT, 0.75 lbs/A) | % Control Clover (white clover; Test 4, 7 DAT, 0.18 lbs/A) | % Control Clover (white clover; Test 4, 7 DAT, 0.75 lbs/A) | % Control Clover (white clover; Test 4, 14 DAT, 0.18 lbs/A)
22.2%: % Control Crabgrass (crabgrass; Test 1, 24 HAT, 0.18 lbs/A) | % Control Crabgrass (crabgrass; Test 1, 24 HAT, 0.375 lbs/A) | % Control Crabgrass (crabgrass; Test 1, 24 HAT, 0.75 lbs/A) | % Control Crabgrass (crabgrass; Test 2, 24 HAT, 0.375 lbs/A) | % Control Crabgrass (crabgrass; Test 2, 24 HAT, 0.75 lbs/A) | % Control Crabgrass (crabgrass; Test 4, 7 DAT, 0.375 lbs/A) | % Control Crabgrass (crabgrass; Test 4, 7 DAT, 0.75 lbs/A) | % Control Crabgrass (crabgrass; Test 4, 14 DAT, 0.18 lbs/A) | % Control Plantain (plantain; Test 4, 7 DAT, 0.375 lbs/A) | % Control Plantain (plantain; Test 4, 14 DAT, 0.375 lbs/A) | % Control Clover (white clover; Test 1, 48 HAT, 0.18 lbs/A) | % Control Clover (white clover; Test 2, 24 HAT, 0.18 lbs/A) | % Control Clover (white clover; Test 2, 24 HAT, 0.375 lbs/A) | % Control Clover (white clover; Test 2, 24 HAT, 0.75 lbs/A)
9: Control (1-9) Clover (white clover; Test 1, 14 DAT, 0.18 lbs/A) | Control (1-9) Clover (white clover; Test 1, 14 DAT, 0.375 lbs/A) | Control (1-9) Clover (white clover; Test 2, 14 DAT, 0.18 lbs/A) | Control (1-9) Clover (white clover; Test 2, 14 DAT, 0.375 lbs/A) | Control (1-9) Clover (white clover; Test 2, 14 DAT, 0.75 lbs/A)
100.0%: % Control Clover (white clover; Test 1, 14 DAT, 0.18 lbs/A) | % Control Clover (white clover; Test 1, 14 DAT, 0.375 lbs/A) | % Control Clover (white clover; Test 2, 14 DAT, 0.18 lbs/A) | % Control Clover (white clover; Test 2, 14 DAT, 0.375 lbs/A) | % Control Clover (white clover; Test 2, 14 DAT, 0.75 lbs/A)
55.6%: % Control Crabgrass (crabgrass; Test 1, 14 DAT, 0.375 lbs/A) | % Control Crabgrass (crabgrass; Test 1, 14 DAT, 0.75 lbs/A) | % Control Crabgrass (crabgrass; Test 2, 14 DAT, 0.18 lbs/A) | % Control Clover (white clover; Test 4, 14 DAT, 0.375 lbs/A)
44.4%: % Control Crabgrass (crabgrass; Test 1, 7 DAT, 0.18 lbs/A) | % Control Crabgrass (crabgrass; Test 1, 7 DAT, 0.375 lbs/A) | % Control Crabgrass (crabgrass; Test 1, 7 DAT, 0.75 lbs/A) | % Control Crabgrass (crabgrass; Test 1, 48 HAT, 0.375 lbs/A) | % Control Crabgrass (crabgrass; Test 1, 48 HAT, 0.75 lbs/A) | % Control Crabgrass (crabgrass; Test 2, 72 HAT, 0.18 lbs/A) | % Control Crabgrass (crabgrass; Test 2, 72 HAT, 0.75 lbs/A) | % Control Crabgrass (crabgrass; Test 4, 14 DAT, 0.75 lbs/A) | % Control Clover (white clover; Test 4, 7 DAT, 0.375 lbs/A) | % Control Clover (white clover; Test 4, 14 DAT, 0.75 lbs/A)
4: Control (1-9) Crabgrass (crabgrass; Test 1, 7 DAT, 0.18 lbs/A) | Control (1-9) Crabgrass (crabgrass; Test 1, 7 DAT, 0.375 lbs/A) | Control (1-9) Crabgrass (crabgrass; Test 1, 7 DAT, 0.75 lbs/A) | Control (1-9) Crabgrass (crabgrass; Test 1, 48 HAT, 0.375 lbs/A) | Control (1-9) Crabgrass (crabgrass; Test 1, 48 HAT, 0.75 lbs/A) | Control (1-9) Crabgrass (crabgrass; Test 2, 72 HAT, 0.18 lbs/A) | Control (1-9) Crabgrass (crabgrass; Test 2, 72 HAT, 0.75 lbs/A) | Control (1-9) Crabgrass (crabgrass; Test 4, 14 DAT, 0.75 lbs/A) | Control (1-9) Clover (white clover; Test 4, 7 DAT, 0.375 lbs/A) | Control (1-9) Clover (white clover; Test 4, 14 DAT, 0.75 lbs/A)
3: Control (1-9) Crabgrass (crabgrass; Test 1, 48 HAT, 0.18 lbs/A) | Control (1-9) Crabgrass (crabgrass; Test 2, 7 DAT, 0.18 lbs/A) | Control (1-9) Crabgrass (crabgrass; Test 2, 24 HAT, 0.18 lbs/A) | Control (1-9) Crabgrass (crabgrass; Test 2, 72 HAT, 0.375 lbs/A) | Control (1-9) Crabgrass (crabgrass; Test 4, 14 DAT, 0.375 lbs/A) | Control (1-9) Plantain (plantain; Test 4, 7 DAT, 0.18 lbs/A) | Control (1-9) Plantain (plantain; Test 4, 7 DAT, 0.75 lbs/A) | Control (1-9) Plantain (plantain; Test 4, 14 DAT, 0.18 lbs/A) | Control (1-9) Plantain (plantain; Test 4, 14 DAT, 0.75 lbs/A) | Control (1-9) Clover (white clover; Test 1, 7 DAT, 0.18 lbs/A) | Control (1-9) Clover (white clover; Test 1, 7 DAT, 0.375 lbs/A) | Control (1-9) Clover (white clover; Test 1, 7 DAT, 0.75 lbs/A) | Control (1-9) Clover (white clover; Test 1, 48 HAT, 0.375 lbs/A) | Control (1-9) Clover (white clover; Test 1, 48 HAT, 0.75 lbs/A) | Control (1-9) Clover (white clover; Test 2, 72 HAT, 0.18 lbs/A) | Control (1-9) Clover (white clover; Test 2, 72 HAT, 0.375 lbs/A) | Control (1-9) Clover (white clover; Test 2, 72 HAT, 0.75 lbs/A) | Control (1-9) Clover (white clover; Test 4, 7 DAT, 0.18 lbs/A) | Control (1-9) Clover (white clover; Test 4, 7 DAT, 0.75 lbs/A) | Control (1-9) Clover (white clover; Test 4, 14 DAT, 0.18 lbs/A)
7: Control (1-9) Crabgrass (crabgrass; Test 1, 14 DAT, 0.18 lbs/A) | Control (1-9) Crabgrass (crabgrass; Test 2, 7 DAT, 0.375 lbs/A) | Control (1-9) Crabgrass (crabgrass; Test 2, 7 DAT, 0.75 lbs/A) | Control (1-9) Crabgrass (crabgrass; Test 2, 14 DAT, 0.375 lbs/A) | Control (1-9) Clover (white clover; Test 2, 7 DAT, 0.375 lbs/A) | Control (1-9) Clover (white clover; Test 2, 7 DAT, 0.75 lbs/A)
6: Control (1-9) Clover (white clover; Test 2, 7 DAT, 0.18 lbs/A)
66.7%: % Control Clover (white clover; Test 2, 7 DAT, 0.18 lbs/A)
8: Control (1-9) Crabgrass (crabgrass; Test 2, 14 DAT, 0.75 lbs/A) | Control (1-9) Clover (white clover; Test 1, 14 DAT, 0.75 lbs/A)
5: Control (1-9) Crabgrass (crabgrass; Test 1, 14 DAT, 0.375 lbs/A) | Control (1-9) Crabgrass (crabgrass; Test 1, 14 DAT, 0.75 lbs/A) | Control (1-9) Crabgrass (crabgrass; Test 2, 14 DAT, 0.18 lbs/A) | Control (1-9) Clover (white clover; Test 4, 14 DAT, 0.375 lbs/A)
